In paper PMC5063960, “N-acetylglucosamine sensing by a GCN5-related N-acetyltransferase induces transcription via chromatin histone acetylation in fungi” (Nature Communications, 2016):

Biological target: T1, Ngs1 (Candida albicans, UniProt A0A1D8PRM0)
T1 construct: full length (963 aa), N-terminal 3xFLAG tag, expressed from NGS1 promoter in C. albicans ngs1 mutant; protein extract
Experiment: GlcNAc-agarose pull-down from protein extract, competition with free GlcNAc, anti-FLAG Western blot
Format: binding
Conditions: 100 mM free GlcNAc as competitor; 4 °C overnight; GH3 homology domain site

T1 sequence (A0A1D8PRM0 entry or part of it): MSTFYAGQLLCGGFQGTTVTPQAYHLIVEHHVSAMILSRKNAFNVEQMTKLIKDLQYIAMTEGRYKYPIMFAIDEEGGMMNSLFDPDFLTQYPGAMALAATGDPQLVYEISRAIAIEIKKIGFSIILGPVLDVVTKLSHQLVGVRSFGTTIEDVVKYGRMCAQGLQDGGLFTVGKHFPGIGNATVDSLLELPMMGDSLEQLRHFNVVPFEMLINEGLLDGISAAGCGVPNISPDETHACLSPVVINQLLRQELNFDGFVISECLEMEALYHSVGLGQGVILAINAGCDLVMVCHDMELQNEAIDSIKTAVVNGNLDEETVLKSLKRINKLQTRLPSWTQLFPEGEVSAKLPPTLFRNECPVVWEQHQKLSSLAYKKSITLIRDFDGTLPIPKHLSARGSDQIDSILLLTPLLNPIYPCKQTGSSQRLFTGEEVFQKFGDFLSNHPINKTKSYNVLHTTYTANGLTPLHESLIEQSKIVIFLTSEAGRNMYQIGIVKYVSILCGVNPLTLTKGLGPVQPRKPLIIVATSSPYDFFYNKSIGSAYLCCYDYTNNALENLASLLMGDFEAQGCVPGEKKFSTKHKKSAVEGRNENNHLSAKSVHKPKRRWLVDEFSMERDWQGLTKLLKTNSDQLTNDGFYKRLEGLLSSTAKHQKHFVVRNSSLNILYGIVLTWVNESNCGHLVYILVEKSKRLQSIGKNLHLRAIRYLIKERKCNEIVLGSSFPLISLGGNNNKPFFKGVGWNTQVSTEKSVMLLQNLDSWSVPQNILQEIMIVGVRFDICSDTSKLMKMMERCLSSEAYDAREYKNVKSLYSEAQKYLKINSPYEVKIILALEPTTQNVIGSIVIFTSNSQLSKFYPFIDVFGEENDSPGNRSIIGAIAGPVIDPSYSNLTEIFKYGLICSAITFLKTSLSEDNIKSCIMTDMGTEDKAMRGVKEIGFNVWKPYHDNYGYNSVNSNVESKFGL

CC(=O)N[C@H]1C(O)O[C@H](CO)[C@@H](O)[C@@H]1O (stereo partly shown) [GlcNAc]
GlcNAc-agarose pull-down from protein extract, competition with free GlcNAc, ant: The binding of GlcNAc-agarose with FLAG-Ngs1 was greatly reduced when free GlcNAc was added
